{
  "source": "patent US20260184700A1",
  "about": "“PDK1 REGULATORY COMPOUND AND COMPOSITION CONTAINING THE SAME” (PROVIBIO CO., LTD., priority 2024, published 2026)",
  "key": {"[1]": {"test_system": "HCT-116 colon cancer cell lines", "assay": "Invasion Assay using Matrigel, HCT-116", "format": "cell-based, human", "conditions": "HCT-116, Matrigel invasion, 24 hours treatment", "procedure": "To evaluate the metastasis inhibitory efficacy of the compounds of the present invention on HCT-116 colon cancer cell lines, an Invasion Assay using Matrigel was performed to assess the cells' invasion ability.\nFirst, Matrigel was thawed on ice in RPMI-1640 medium without FBS, then diluted with DMEM at a ratio of 1:20.\nThe diluted Matrigel mixture was applied to the upper chamber at 100 μl per well, and 750 μl of RPMI-1640 without FBS was added to the lower chamber.\nThe plates were then incubated at 37° C. for 1 hour to allow the Matrigel to solidify.\nAfter coating, the Matrigel mixture in the upper chamber was removed using a pipette, and the chamber was washed with RPMI without FBS.\nHuman-derived colorectal cancer cell line HCT-116, obtained from the Korean Cell Bank, was cultured in RPMI-1640 medium containing 10% FBS.\nFollowing stabilization, the cells were harvested using Trypsin-EDTA treatment, centrifuged at 1,200 rpm for 3 minutes, the supernatant was removed, and the cells were resuspended in the same medium, the medium in the lower chamber was replaced with 750 μl of RPMI-1640 supplemented with 10% FBS, and the cells were seeded into the upper chamber at a density of 5×10^4 cells/well.\nThe cells were cultured for 24 hours after attachment, and then the compounds according to the present invention (G078, G085, G086, G088, G089, PBK-2024-010, PBK-2025-010, PBK-2025-013, PBK-2025-016) and the control substance DMSO were diluted and added to the upper chamber after removing the medium.\nAdditionally, the medium in the lower chamber was replaced with fresh RPMI-1640 containing FBS, and the culture was continued.\nAfter an additional 24 hours, the medium was removed, and 1 ml of methanol was added for 10 minutes to fix the cells.\nSubsequently, 1 ml of Hematoxylin was added and reacted for 5 minutes, followed by 1 ml of Eosin, which was reacted for 30 seconds. The sample was then washed with distilled water (DW).\nAfter staining was complete, any remaining cells in the upper chamber were removed. Finally, the infiltrated cells were observed under a microscope, photographed, and the degree of infiltration was analyzed."}, "[2]": {"test_system": "Human Bladder cancer cell, T24", "assay": "Relative cell viability, CCK-8, T24", "format": "cell-based", "conditions": "48 hours", "procedure": "Human-derived breast cancer cell line MCF-7, human-derived lung cancer cell line A549, human-derived colorectal cancer cell line HCT-116, human pancreatic cancer cell line AsPC-1, glioblastoma cell line A172, and melanoma cell line Malme-3M were obtained from the Korean Cell Bank. gastric cancer cell line SNU-719, and bladder cancer cell line T24 were cultured in RPMI-1640 medium containing 10% FBS.\nFollowing stabilization, the cells were harvested using Trypsin-EDTA treatment, centrifuged at 1,200 rpm for 3 minutes, the supernatant was removed, and the cells were resuspended in the same medium. They were then seeded into a 96-well plate (Costar 96-well cell culture plate, Corning) at 100 μL per well, and the conditions were adjusted as indicated in Table 5.\nThe cells were cultured in a 5% CO2 incubator at 37° C. for 24 hours, and after stabilization of the cells, each plate was washed with 200 μL of PBS per well and treated with 50 μL of culture medium per well. […]\nAfter that, 10 μL of CCK-8 was added to each well, and the plate was incubated again at 37° C. in a 5% CO2 incubator for 2 hours.\nIn other words, when the survival rate of untreated cells (DMSO) is set at 100%, the relative cell survival rate in each group treated with the drug at different concentrations is indicated."}},
  "data": [
    {"smiles": "CC1(C)CN(CCCCCCCCCCCCC(=O)Nc2nc(N)c3[nH]cnc3n2)CCO1", "note": "[Compound 11, 12-[4-(2,2-dimethylmorpholin-4-yl)]dodecyl-N-(6-aminopurine-2-yl)carboxamide]", "values": [
      {"measurement": "number of infiltrated cells", "setting": "[1]", "value": "reduction in the number of infiltrated cells"},
      {"measurement": "Relative cell viability (%)", "setting": "[2]; T24, 1 μM", "value": 28.15, "unit": "%"},
      {"measurement": "Relative cell viability (%)", "setting": "[2]; T24, 10 μM", "value": 31.17, "unit": "%"},
      {"measurement": "Relative cell viability (%)", "setting": "[2]; T24, 30 μM", "value": 30.42, "unit": "%"},
      {"measurement": "Relative cell viability (%)", "setting": "[2]; T24, 50 μM", "value": 29.34, "unit": "%"}
    ]}
  ]
}
